Like-named read-outs stand apart in the source and are kept apart here. Where a SMILES comes first, the peptide text is derived from it. Bridges are numbered along the chain shown (N, C = ends). [ ]: non-standard residue; d: D form. The star is where a group is joined. d(aIle) = CC[C@H](C)[C@@H](N)C(=O)O; d(aThr) = C[C@@H](O)[C@@H](N)C(=O)O; hCha = N[C@@H](CCC1CCCCC1)C(=O)O; Hexanoyl(5-Me) = CC(C)CCCC(=O)*; dCha = N[C@H](CC1CCCCC1)C(=O)O; Orn = NCCC[C@H](N)C(=O)O; Dhb = C/C=C(\N)C(=O)O
Assays:
Assay type in all cases: cell-based, human
A-549 = experiment: SRB colorimetric assay of cell growth and viability, A-549; conditions: 48 hours exposure; for GI50: read-out: GI50 A-549; for CC50: read-out: LC50 A-549
SK-MEL-28 = experiment: SRB colorimetric assay of cell growth and viability, SK-MEL-28; conditions: 48 hours exposure; for CC50: read-out: LC50 MEL-28
HT-29 = experiment: SRB colorimetric assay of cell growth and viability, HT-29; conditions: 48 hours exposure; for GI50: read-out: GI50 HT-29; for CC50: read-out: LC50 HT-29
LoVo = experiment: SRB colorimetric assay of cell growth and viability, LoVo; conditions: 48 hours exposure; for CC50: read-out: LC50 LOVO
LoVo-Dox = experiment: SRB colorimetric assay of cell growth and viability, LoVo-Dox; conditions: 48 hours exposure; for CC50: read-out: LC50 LOVO-DOX
Summary of the method: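 First, 5×10^3 cells per well attach for 18 hours in RPMI 1640 with 10% FBS at 37° C and 5% CO2. Next, samples spanning 10 to 10^−8 μg/mL are added for 48 hours. Finally, cells are fixed with TCA, stained with SRB for 10 minutes and read at 490 nm.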

DU-145 = experiment: SRB colorimetric assay of cell growth and viability, DU-145; conditions: 48 hours exposure
LNCaP = experiment: SRB colorimetric assay of cell growth and viability, LNCaP; conditions: 48 hours exposure; for GI50: read-out: GI50 LN-caP; for CC50: read-out: LC50 LN-caP
SK-BR-3 = experiment: SRB colorimetric assay of cell growth and viability, SK-BR-3; conditions: 48 hours exposure
IGROV-1 = experiment: SRB colorimetric assay of cell growth and viability, IGROV-1; conditions: 48 hours exposure
IGROV-ET = experiment: SRB colorimetric assay of cell growth and viability, IGROV-ET; conditions: 48 hours exposure; for CC50: read-out: LC50 IGROV-ET
HeLa = experiment: SRB colorimetric assay of cell growth and viability, HeLa; conditions: 48 hours exposure; for CC50: read-out: LC50 HELA
HeLa-APL = experiment: SRB colorimetric assay of cell growth and viability, HeLa-APL; conditions: 48 hours exposure; for CC50: read-out: LC50 HELA-APL
K-562 = experiment: SRB colorimetric assay of cell growth and viability, K-562; conditions: 48 hours exposure
PANC-1 = experiment: SRB colorimetric assay of cell growth and viability, PANC-1; conditions: 48 hours exposure, SRB

C/C=C1\NC(=O)[C@H](Cc2ccccc2)NC(=O)[C@@H](C(C)C)NC(=O)[C@@H]([C@@H](C)CC)NC(=O)[C@H](NC(=O)[C@H](NC(=O)[C@H](CCCN)NC(=O)[C@H]2CCCN2C(=O)[C@H](NC(=O)[C@H](CCC2CCCCC2)NC(=O)[C@@H](NC(=O)[C@@H](CC2CCCCC2)NC(=O)CCCC(C)C)[C@@H](C)O)C(C)C)[C@@H](C)CC)[C@@H](C)OC(=O)[C@H](C(C)C)NC1=O [Compound 10, [hCh^11, D-Cha^13]-KF] ({Hexanoyl(5-Me)}-[dCha]T[hCha][dV][dP][Orn][d(aIle)][d(aThr)][d(aIle)][dV]F[Dhb]V; ester 8-C)
TGI A-549 (A-549): 6.25E−06 Molar | GI50 (A-549): 3560 nM | CC50 (A-549): 6250 nM | GI50 (SK-MEL-28): 3100 nM | TGI MEL-28 (SK-MEL-28): 6.25E−06 Molar | CC50 (SK-MEL-28): 6250 nM | TGI HT-29 (HT-29): 1.96E−06 Molar | GI50 (HT-29): 1060 nM | CC50 (HT-29): 3580 nM | GI50 (LoVo): 1120 nM | TGI LOVO (LoVo): 2.27E−06 Molar | CC50 (LoVo): 4590 nM | GI50 (LoVo-Dox): 537 nM | TGI LOVO-DOX (LoVo-Dox): 1.30E−06 Molar | CC50 (LoVo-Dox): 2940 nM | GI50 (DU-145): 4290 nM | LC50 (concentration causing 50% net cell kill) (DU-145): 6250 nM | TGI DU-145 (DU-145): 6.25E−06 Molar | TGI LN-caP (LNCaP): 6.25E−06 Molar | GI50 (LNCaP): 4890 nM | CC50 (LNCaP): 6250 nM | GI50 (SK-BR-3): 1310 nM | LC50 (SK-BR-3): 4160 nM | TGI SK-BR-3 (SK-BR-3): 2.32E−06 Molar | GI50 (IGROV-1): 1990 nM | LC50 (concentration causing 50% net cell killing) (IGROV-1): 6250 nM | TGI IGROV (IGROV-1): 3.84E−06 Molar | GI50 (IGROV-ET): 2230 nM | TGI IGROV-ET (IGROV-ET): 4.56E−06 Molar | CC50 (IGROV-ET): 6250 nM | GI50 (HeLa): 2670 nM | TGI HELA (HeLa): 6.25E−06 Molar | CC50 (HeLa): 6250 nM | GI50 (HeLa-APL): 3670 nM | TGI HELA-APL (HeLa-APL): 6.25E−06 Molar | CC50 (HeLa-APL): 6250 nM | GI50 (K-562): 6250 nM | TGI K-562 (K-562): 6.25E−06 Molar | CC50 (K-562; read-out: LC50 K-562): 6250 nM

C/C=C1\NC(=O)[C@H](Cc2ccc([N+](=O)[O-])cc2)NC(=O)[C@@H](C(C)C)NC(=O)[C@@H]([C@@H](C)CC)NC(=O)[C@H](NC(=O)[C@H](NC(=O)[C@H](CCCN)NC(=O)[C@H]2CCCN2C(=O)[C@H](NC(=O)[C@@H](NC(=O)[C@@H](NC(=O)[C@H](NC(=O)CC[C@@H](C)CC)C(C)C)[C@@H](C)O)C(C)C)C(C)C)[C@@H](C)CC)[C@@H](C)OC(=O)[C@H](C(C)C)NC1=O [Compound 73, [Phe(4-NO2)^3, (4S)-MeHex^14]-KF]
TGI A-549 (A-549; SRB): 1.24E−06 Molar | GI50 (A-549; SRB): 532 nM | CC50 (A-549; SRB): 2760 nM | GI50 (SK-MEL-28; SRB): 223 nM | TGI MEL-28 (SK-MEL-28; SRB): 4.71E−07 Molar | CC50 (SK-MEL-28; SRB): 1480 nM | TGI HT-29 (HT-29; SRB): 2.32E−07 Molar | GI50 (HT-29; SRB): 127 nM | CC50 (HT-29; SRB): 426 nM | GI50 (LoVo; SRB): 112 nM | TGI LOVO (LoVo; SRB): 2.04E−07 Molar | CC50 (LoVo; SRB): 372 nM | GI50 (LoVo-Dox; SRB): 33.5 nM | TGI LOVO-DOX (LoVo-Dox; SRB): 9.46E−08 Molar | CC50 (LoVo-Dox; SRB): 255 nM | GI50 (DU-145; SRB): 233 nM | LC50 (concentration causing 50% net cell kill) (DU-145; SRB): 2040 nM | TGI DU-145 (DU-145; SRB): 6.57E−07 Molar | TGI LN-caP (LNCaP; SRB): 8.41E−07 Molar | GI50 (LNCaP; SRB): 377 nM | CC50 (LNCaP; SRB): 2320 nM | GI50 (SK-BR-3; SRB): 150 nM | LC50 (SK-BR-3; SRB): 574 nM | TGI SK-BR-3 (SK-BR-3; SRB): 2.94E−07 Molar | GI50 (IGROV-1; SRB): 173 nM | LC50 (concentration causing 50% net cell killing) (IGROV-1; SRB): 488 nM | TGI IGROV (IGROV-1; SRB): 2.90E−07 Molar | GI50 (IGROV-ET; SRB): 229 nM | TGI IGROV-ET (IGROV-ET; SRB): 3.26E−07 Molar | CC50 (IGROV-ET; SRB): 467 nM | GI50 (HeLa; SRB): 173 nM | TGI HELA (HeLa; SRB): 2.80E−07 Molar | CC50 (HeLa; SRB): 450 nM | GI50 (HeLa-APL; SRB): 521 nM | TGI HELA-APL (HeLa-APL; SRB): 1.30E−06 Molar | CC50 (HeLa-APL; SRB): 2950 nM | GI50 (PANC-1): 952 nM | TGI PANC-1 (PANC-1): 1.85E−06 Molar | CC50 (PANC-1; read-out: LC50 PANC-1): 3580 nM
